We go through 27 compounds from patent US9815796B2 (Merck Sharp & Dohme Corp., priority 2013, dated 2017).

Read-outs that look alike come from different tables or passages of the source.

The target in one experiment is Rhesus PDE2A3 (Macaca mulatta, UniProt B3VTJ2). As to the kind of experiment: PDE2 fluorescence polarization (IMAP FP) inhibition assay, rhesus enzyme. Format: biochemical, rhesus macaque. The method in brief: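 Rhesus PDE2A3 came from lysate of transiently transfected AD293 cells, diluted to give 20% substrate conversion. Substrate was 50 nM FAM-cAMP with 1 uM cGMP activator in Tris pH 7.2/MgCl2 buffer, run 60 min at room temperature over 10-point 3-fold dilutions in 1% DMSO. Read-out was IMAP fluorescence polarization (mP) after ≥1 h binding.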
Chain of Rhesus PDE2A3 (B3VTJ2 1-941): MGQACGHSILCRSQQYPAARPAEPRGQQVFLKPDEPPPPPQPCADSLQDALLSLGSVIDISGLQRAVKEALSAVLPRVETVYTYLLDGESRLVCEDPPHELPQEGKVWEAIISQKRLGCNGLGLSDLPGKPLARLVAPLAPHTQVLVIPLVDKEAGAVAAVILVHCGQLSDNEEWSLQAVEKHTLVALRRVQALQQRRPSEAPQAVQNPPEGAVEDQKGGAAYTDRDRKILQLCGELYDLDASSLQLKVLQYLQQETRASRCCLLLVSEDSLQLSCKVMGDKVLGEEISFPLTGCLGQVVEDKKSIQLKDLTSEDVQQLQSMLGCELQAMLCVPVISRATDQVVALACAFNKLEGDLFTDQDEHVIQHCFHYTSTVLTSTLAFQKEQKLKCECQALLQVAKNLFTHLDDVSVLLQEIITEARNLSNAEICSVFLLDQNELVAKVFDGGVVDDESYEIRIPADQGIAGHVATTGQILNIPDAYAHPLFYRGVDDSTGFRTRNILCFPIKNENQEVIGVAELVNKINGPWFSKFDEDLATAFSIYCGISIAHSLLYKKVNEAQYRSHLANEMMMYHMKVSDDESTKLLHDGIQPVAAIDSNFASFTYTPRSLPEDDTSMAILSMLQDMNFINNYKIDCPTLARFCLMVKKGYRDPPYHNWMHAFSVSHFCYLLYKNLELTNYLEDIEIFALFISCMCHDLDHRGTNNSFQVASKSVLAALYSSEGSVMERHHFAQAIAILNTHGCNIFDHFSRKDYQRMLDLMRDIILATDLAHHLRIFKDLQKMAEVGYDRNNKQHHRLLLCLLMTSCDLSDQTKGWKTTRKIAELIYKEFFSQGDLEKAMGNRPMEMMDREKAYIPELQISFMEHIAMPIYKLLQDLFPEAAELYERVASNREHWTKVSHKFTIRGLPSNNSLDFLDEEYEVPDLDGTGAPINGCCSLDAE
On the technique in general: In fluorescence polarisation assays a small probe gives low polarisation when free and higher when bound to something large.

In a further experiment the target is human PDE2A1 (Homo sapiens (Human), UniProt O00408). Briefly: IMAP FP PDE selectivity panel, human PDE2A1. Type of experiment: biochemical. The method in brief: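 GST-tagged human PDE2A1 expressed in insect cells, run at room temperature for 60 min with 50 nM FAM-cAMP containing 1000 nM cGMP, pH 7.2 Tris/MgCl2 buffer. IMAP fluorescence polarization read after binding step.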
Chain of human PDE2A1 (O00408 other isoform, or with tags, fused parts or gaps): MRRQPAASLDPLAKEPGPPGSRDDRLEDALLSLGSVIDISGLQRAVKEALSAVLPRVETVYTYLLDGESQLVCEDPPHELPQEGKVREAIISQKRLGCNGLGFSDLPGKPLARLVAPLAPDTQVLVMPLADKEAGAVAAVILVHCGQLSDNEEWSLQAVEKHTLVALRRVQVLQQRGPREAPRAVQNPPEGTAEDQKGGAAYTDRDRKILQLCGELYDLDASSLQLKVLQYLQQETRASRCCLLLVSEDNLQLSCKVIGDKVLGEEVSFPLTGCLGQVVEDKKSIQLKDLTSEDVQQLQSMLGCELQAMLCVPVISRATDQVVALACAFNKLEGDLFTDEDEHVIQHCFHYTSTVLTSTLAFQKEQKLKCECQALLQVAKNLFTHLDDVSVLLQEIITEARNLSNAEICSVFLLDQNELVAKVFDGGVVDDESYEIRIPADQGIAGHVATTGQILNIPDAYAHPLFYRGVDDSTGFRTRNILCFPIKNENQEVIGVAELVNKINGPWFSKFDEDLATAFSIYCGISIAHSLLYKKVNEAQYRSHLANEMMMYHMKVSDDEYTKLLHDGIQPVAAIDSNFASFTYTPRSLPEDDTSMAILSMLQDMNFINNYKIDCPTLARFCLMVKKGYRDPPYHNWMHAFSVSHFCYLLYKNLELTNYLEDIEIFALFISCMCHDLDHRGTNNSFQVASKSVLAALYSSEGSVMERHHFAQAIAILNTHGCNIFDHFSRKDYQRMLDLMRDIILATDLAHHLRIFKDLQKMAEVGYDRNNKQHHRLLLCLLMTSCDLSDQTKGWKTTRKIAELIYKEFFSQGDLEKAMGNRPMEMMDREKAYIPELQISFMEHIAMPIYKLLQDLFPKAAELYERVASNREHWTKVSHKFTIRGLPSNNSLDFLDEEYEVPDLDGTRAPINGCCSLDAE

[1] abbreviates: Rhesus PDE2, Lab A, read-out: Rhesus PDE2 Ki (nM) - Lab A.
[2] abbreviates: Human PDE2, Lab A, read-out: Human PDE2 Ki (nM) - Lab A.
Where [3] appears, read: Rhesus PDE2, Lab B, read-out: Rhesus PDE2 Ki (nM) - Lab B.
Where [4] appears, read: Human PDE2, Lab B, read-out: Human PDE2 Ki (nM) - Lab B.

On to `O=C(N[C@@H](c1ccc(OC(F)(F)F)cc1)C1CC1)c1cc(=O)[nH]c(-c2ccccc2)n1` [Example 175, N-{(R)-cyclopropyl[4-(trifluoromethoxy)phenyl]methyl}-6-oxo-2-phenyl-1,6-dihydropyrimidine-4-carboxamide], for which the Ki at Rhesus PDE2A3 (setting [1]) and on human PDE2A1 (setting [2]) was 3.9 nM throughout.
As to `Cc1nc(C(=O)N[C@H](C)c2ccc(S(F)(F)(F)(F)F)cc2)cc(=O)[nH]1` [Example 37, 2-methyl-6-oxo-N-{(1R)-1-[4-(pentafluoro-λ^6-sulfanyl)phenyl]ethyl}-1,6-dihydropyrimidine-4-carboxamide], the Ki (usually a dissociation constant, usually derived from enzyme kinetics or from competition with a known ligand) stood at 17 nM on Rhesus PDE2A3 (setting [1]), 19 nM at Rhesus PDE2A3 (setting [3]), 14 nM on human PDE2A1 (setting [2]) and 27 nM at human PDE2A1 (setting [4]).
As for `O=C(N[C@@H](c1ccc(OC(F)(F)F)c(F)c1)C1CC1)c1cc(=O)[nH]c(C2CC2)n1` [Example 212], the values for the Ki on Rhesus PDE2A3 (setting [1]) and on human PDE2A1 (setting [2]) were 6.1 nM and 2.6 nM, respectively.
On to `CC(C)[C@@H](NC(=O)c1cc(=O)[nH]c(-c2ccccc2)n1)c1ccc(C(F)(F)F)c(F)c1` [Example 383, N-{(1R)-1-[3-fluoro-4-(trifluoromethyl)phenyl]-2-methylpropyl}-6-oxo-2-phenyl-1,6-dihydropyrimidine-4-carboxamide], for which the Ki is 4.2 nM on Rhesus PDE2A3 (setting [3]) and 2.9 nM on human PDE2A1 (setting [4]).
Regarding `CC(C)(NC(=O)c1cc(=O)[nH]c(C2CC2)n1)c1ccc(C(F)(F)F)cc1` [Example 293, 2-cyclopropyl-N-{1-methyl-1-[4-(trifluoromethyl)phenyl]ethyl}-6-oxo-1,6-dihydropyrimidine-4-carboxamide], the Ki at Rhesus PDE2A3 (setting [1]) worked out at 22 nM; at human PDE2A1 (setting [2]), 20 nM.
For the compound `C[C@@H](NC(=O)c1cc(=O)[nH]c(Cc2cccnc2)n1)c1ccc(C(F)(F)F)cc1` [Example 6, 6-oxo-2-(pyridin-3-ylmethyl)-N-{(1R)-1-[4-(trifluoromethyl)phenyl]ethyl}-1,6-dihydropyrimidine-4-carboxamide], the Ki at Rhesus PDE2A3 (setting [1]) came out at 55 nM; on human PDE2A1 (setting [2]) it was 33 nM.
For `C[C@@H](NC(=O)c1cc(=O)[nH]c(C2CC2)n1)c1ccc(C(F)(F)F)c(Cl)c1` [Example 232, N-{(1R)-1-[3-chloro-4-(trifluoromethyl)phenyl]ethyl}-2-cyclopropyl-6-oxo-1,6-dihydropyrimidine-4-carboxamide] the same measures were 29 nM and 17 nM.
For `CCc1ccc(C(C)NC(=O)c2cc(=O)[nH]c(C3CC3)n2)cc1` (stereo not shown) [Example 194, 2-cyclopropyl-N-[1-(4-ethylphenyl)ethyl]-6-oxo-1,6-dihydropyrimidine-4-carboxamide] the same measures were 72 nM and 28 nM.
For `C[C@@H](NC(=O)c1cc(=O)[nH]c(-c2cccc(F)c2)n1)c1ccc(C(F)(F)F)cc1` [Example 138, 2-(3-fluorophenyl)-6-oxo-N-{(1R)-1-[4-(trifluoromethyl)phenyl]ethyl}-1,6-dihydropyrimidine-4-carboxamide] the same measures were 76 nM and 69 nM.
In the case of `O=C(N[C@@H](c1ccc(OC(F)F)cc1)C1CC1)c1cc(=O)[nH]c(C2CC2)n1` [Example 446, 2-cyclopropyl-N-{(R)-cyclopropyl[4-(difluoromethoxy)phenyl]methyl}-6-oxo-1,6-dihydropyrimidine-4-carboxamide], the Ki on Rhesus PDE2A3 (setting [3]) is 43 nM; on human PDE2A1 (setting [4]) it was 42 nM.
Take `O=C(NC1(c2ccc(SC(F)(F)F)cc2)CC1)c1cc(=O)[nH]c(-c2ncccn2)n1` [Example 77, 6-oxo-N-(1-{4-[(trifluoromethyl)sulfanyl]phenyl}cyclopropyl)-1,6-dihydro-2,2′-bipyrimidine-4-carboxamide]: the Ki was 19 nM at Rhesus PDE2A3 (setting [1]), 14 nM at Rhesus PDE2A3 (setting [3]) and 21 nM at human PDE2A1 (setting [4]).
For the compound `COc1ccc(C(C)(C)c2nc(C(=O)N[C@@H](c3ccc(OC(F)(F)F)c(F)c3)C(C)C)cc(=O)[nH]2)cc1` [Example 492, N-{(1R)-1-[3-fluoro-4-(trifluoromethoxy)phenyl]-2-methylpropyl}-2-[1-(4-methoxyphenyl)-1-methylethyl]-6-oxo-1,6-dihydropyrimidine-4-carboxamide], the Ki on Rhesus PDE2A3 (setting [3]) was 42 nM; on human PDE2A1 (setting [4]), 29 nM.
For `CC(C)[C@@H](NC(=O)c1cc(=O)[nH]c(-c2ncccn2)n1)c1ccc(OC(F)(F)F)cc1` [Example 75, N-{(1R)-2-methyl-1-[4-(trifluoromethoxy)phenyl]propyl}-6-oxo-1,6-dihydro-2,2′-bipyrimidine-4-carboxamide], the Ki on Rhesus PDE2A3 (setting [1]) worked out at 5.1 nM; on human PDE2A1 (setting [2]), 3 nM.
In the case of `COC(=O)c1ccc([C@@H](C)NC(=O)c2cc(=O)[nH]c(-c3ccccc3)n2)cc1` [Example 359, methyl 4-[(1R)-1-{[(6-oxo-2-phenyl-1,6-dihydropyrimidin-4-yl)carbonyl]amino}ethyl]benzoate], the Ki is 62 nM on Rhesus PDE2A3 (setting [1]), 173 nM on Rhesus PDE2A3 (setting [3]) and 129 nM at human PDE2A1 (setting [4]).
For `COc1cc(C(F)(F)F)ccc1[C@@H](C)NC(=O)c1cc(=O)[nH]c(C2CC2)n1` [Example 219, 2-cyclopropyl-N-{(1R)-1-[2-methoxy-4-(trifluoromethyl)phenyl]ethyl}-6-oxo-1,6-dihydropyrimidine-4-carboxamide], the values for the Ki on Rhesus PDE2A3 (setting [1]) and at human PDE2A1 (setting [2]) were 43 nM and 31 nM, respectively.
Consider `CC(NC(=O)c1cc(=O)[nH]c(C2CC2)n1)c1ccc(C2CC2)cc1` (stereo not shown) [Example 195, 2-cyclopropyl-N-[1-(4-cyclopropylphenyl)ethyl]-6-oxo-1,6-dihydropyrimidine-4-carboxamide], for which the Ki came to 33 nM on Rhesus PDE2A3 (setting [1]) and 18 nM on human PDE2A1 (setting [2]).
`COc1ccc(Cc2nc(C(=O)N[C@@H](c3ccc(OC(F)(F)F)c(F)c3)C3CC3)cc(=O)[nH]2)cc1F` [Example 521, N-{(R)-cyclopropyl[3-fluoro-4-(trifluoromethoxy)phenyl]methyl}-2-(3-fluoro-4-methoxybenzyl)-6-oxo-1,6-dihydropyrimidine-4-carboxamide]: the Ki amounted to 2.3 nM at Rhesus PDE2A3 (setting [3]) and 2.2 nM on human PDE2A1 (setting [4]).
Turning to `O=C(N[C@@H](c1ccc(C(F)(F)F)c(F)c1)C1CC1)c1cc(=O)[nH]c(C2CC2)n1` [Example 210, 2-cyclopropyl-N-{(R)-cyclopropyl[3-fluoro-4-(trifluoromethyl)phenyl]methyl}-6-oxo-1,6-dihydropyrimidine-4-carboxamide], the Ki on Rhesus PDE2A3 (setting [1]) came out at 6 nM; on human PDE2A1 (setting [2]) it was 3 nM.
With `CC(C)(NC(=O)c1cc(=O)[nH]c(C2CC2)n1)c1ccc(S(F)(F)(F)(F)F)cc1` [Example 680, 2-cyclopropyl-N-{1-methyl-1-[4-(pentafluoro-λ^6-sulfanyl)phenyl]ethyl}-6-oxo-1,6-dihydropyrimidine-4-carboxamide], the Ki amounted to 80 nM on Rhesus PDE2A3 (setting [3]) and 87 nM on human PDE2A1 (setting [4]).
Regarding `C[C@@H](NC(=O)c1cc(=O)[nH]c(C2CC2)n1)c1ccc(C(F)(F)F)cc1` [Example 11, 2-cyclopropyl-6-oxo-N-{(1R)-1-[4-(trifluoromethyl)phenyl]ethyl}-1,6-dihydropyrimidine-4-carboxamide], the Ki on Rhesus PDE2A3 (setting [1]) turned out to be 21 nM; on human PDE2A1 (setting [2]) it was 16 nM.
On to `COc1ccc(Cc2nc(C(=O)N[C@@H](c3ccc(C(F)(F)F)cc3)C3CC3)cc(=O)[nH]2)cc1F` [Example 525, N-{(R)-cyclopropyl[4-(trifluoromethyl)phenyl]methyl}-2-(3-fluoro-4-methoxybenzyl)-6-oxo-1,6-dihydropyrimidine-4-carboxamide], for which the Ki on Rhesus PDE2A3 (setting [3]) is 2.3 nM; at human PDE2A1 (setting [4]) it was 1.9 nM.
As for `O=C(NC1(c2ccc(SC(F)(F)F)cc2)CCC1)c1cc(=O)[nH]c(-c2ccccc2)n1` [Example 171, 6-oxo-2-phenyl-N-(1-{4-[(trifluoromethyl)sulfanyl]phenyl}cyclobutyl)-1,6-dihydropyrimidine-4-carboxamide], the values for the Ki at Rhesus PDE2A3 (setting [1]) and on human PDE2A1 (setting [2]) were 28 nM and 32 nM, respectively.
Turning to `COc1ccc(Cc2nc(C(=O)N[C@@H](c3ccc(C(F)(F)F)cc3)C(C)(C)C)cc(=O)[nH]2)cc1F` [Example 457, N-{(1R)-2,2-dimethyl-1-[4-(trifluoromethyl)phenyl]propyl}-2-(3-fluoro-4-methoxybenzyl)-6-oxo-1,6-dihydropyrimidine-4-carboxamide], the Ki at Rhesus PDE2A3 (setting [3]) was determined as 0.68 nM; at human PDE2A1 (setting [4]) it was 0.64 nM.
Take `Cc1nc(C(=O)N[C@H](C)c2cccc3ccccc23)cc(=O)[nH]1` [Example 301, (R)-2-methyl-N-(1-(naphthalen-1-yl)ethyl)-6-oxo-1,6-dihydropyrimidine-4-carboxamide]: the Ki is 53 nM at Rhesus PDE2A3 (setting [1]) and 66 nM on human PDE2A1 (setting [2]).
For `CC[C@@H](NC(=O)c1cc(=O)[nH]c(Cc2ccc(OC)c(F)c2)n1)c1ccc(C(F)(F)F)c(F)c1` [Example 527, 2-(3-fluoro-4-methoxybenzyl)-N-{(1R)-1-[3-fluoro-4-(trifluoromethyl)phenyl]propyl}-6-oxo-1,6-dihydropyrimidine-4-carboxamide], the Ki at Rhesus PDE2A3 (setting [3]) was 3.1 nM; at human PDE2A1 (setting [4]), 3 nM.
With `COc1ccc(Cc2nc(C(=O)NC3(c4ccc(C(F)(F)F)cc4)CC3)cc(=O)[nH]2)cc1OC` [Example 3, 2-(3,4-dimethoxybenzyl)-6-oxo-N-{1-[4-(trifluoromethyl)phenyl]-cyclopropyl}-1,6-dihydropyrimidine-4-carboxamide], the inhibition constant Ki at Rhesus PDE2A3 (setting [1]) amounted to 0.54 nM; on human PDE2A1 (setting [2]) it was 0.45 nM.
Consider `Cc1nc(C(=O)N[C@@H](c2ccc(S(F)(F)(F)(F)F)cc2)C2(C)CC2)cc(=O)[nH]1` [Example 424, 2-methyl-N-{(R)-(1-methylcyclopropyl)[4-(pentafluoro-λ^6-sulfanyl)phenyl]methyl}-6-oxo-1,6-dihydropyrimidine-4-carboxamide], for which the Ki stood at 7.2 nM at Rhesus PDE2A3 (setting [3]) and 9.2 nM at human PDE2A1 (setting [4]).
